Test system: probiotic bacteria preblend (Lactobacillus rhamnosus GG1 and Bifidobacterium lactis BB12)
Assay type: cell-based
Conditions: iron fortifying agent combined with probiotic bacteria
Protocol: For practical reasons (accuracy in weighed amount), the amounts have been multiplied by 5.
Five preparations containing various iron fortifying agents and probiotic bacteria, and a control composition containing pro biotic bacteria and no iron fortifying agent were tested, as follows:
For each preparation, the required amount of iron fortificant was weighed. The iron fortificant was mixed with the specified amount of diluent TS+, i.e., a reconstitution solution with Tryptone, Sodium Chloride and Antifoam at 37° C. having the following composition:
The mixture was agitated until complete homogenization of the solution (3 min).
The probiotic bacteria preblend (PP036) was added and the mixture agitated for 1 min.
Each of the six preparations were analysed in triplicate.
Bacterial viability was determined immediately after preparation by plating of serial dilutions and subsequent counting of colony forming units. […] The principle of the method is the following: • Samples containing probiotics are weighed, rehydrated in a diluent (TS+) and homogenized by stomaching. • Serial decimal dilutions are performed in the same diluent (TS+) • 1 mL of each appropriate dilution is transferred to Petri dishes and mixed with a specific agar (pour-plate method) • The inoculated solidified agar plates are incubated under specific conditions enabling colony formation by the target bacteria (selective enumeration) • Colonies are counted and results are calculated and expressed in colony forming units per gram of sample (CFU/g).

Substance | Effect on viability of probiotic bacteria (in words)
ferrous bisglycinate | caused a significant loss of bacteria viability
ferric pyrophosphate | does not decrease bacterial viability
ferrous sulfate | caused a significant loss of bacteria viability
ferric ammonium citrate | caused a significant loss of bacteria viability

— US12397026B2, “Dietary supplement” (SOCIÉTÉ DES PRODUITS NESTLÉ S.A., priority 2015, dated 2025)
